Assays:
Malassezia = assay: Level of Malassezia after anti-dandruff actives delivered from shampoo; assay type: in vivo; conditions: 1% active in shampoo formulation, after two weeks of usage; FIG. 5
From the text: From left to right, the bars on the graph represent: 1% SeS2, 1% ZPT, 1% Climbazole, None (Control), 1% Platelet ZPT, 1SeS2, and 1% Ketoconazole.

Malassezia cells = assay: Amplex ultra red (AMP dye) fluorescence, Malassezia cells on unsaturated lipophilic substrate; assay type: cell-based; conditions: pH 5.5; ethoxyquin added to the mixture; FIG. 2
[1] = Amplex assay, 10 μM H2O2 manually added to AMP dye; assay type: biochemical; conditions: 10 μM H2O2 added to AMP dye; pH=7.4; FIG. 3
Protocol: FIG. 3 is a graph showing the amplex fluorescence signal produced when 10 μM H2O2 is manually added to AMP dye.

Row | SMILES | level of Malassezia (Malassezia) | fluorescence signal due to the action of Malassezia on substrate (Malassezia cells) | amplex fluorescence signal produced by H2O2 [1]
1 | CC(C)(C)C(=O)C(Oc1ccc(Cl)cc1)n1ccnc1 (stereo not shown) [Climbazole, climbazole] | decreased level | – | –
2 | CC(=O)N1CCN(c2ccc(OCC3COC(Cn4ccnc4)(c4ccc(Cl)cc4Cl)O3)cc2)CC1 (stereo not shown) [Ketoconazole, ketoconazole] | decreased level | – | –
3 | [O-][n+]1ccccc1[S-].[O-][n+]1ccccc1[S-].[Zn+2] [Platelet ZPT] | decreased level | – | –
4 | S=[Se]=S [SeS2, selenium sulfide] | decreased level | – | –
5 | [O-]n1ccccc1=S.[O-]n1ccccc1=S.[Zn+2] [ZPT, zinc salt of 1-hydroxy-2-pyridinethione] | decreased level | – | –
6 | CCOc1ccc2c(c1)C(C)=CC(C)(C)N2 [ethoxyquin] | – | quenched | quenched

Source: patent publication US20090274642A1, “Hair Care Compositions for Preventing Oxidative Damage to Hair, Methods of Use, and Methods of Marketing Such Compositions” (priority 2008, published 2009)
